These results are taken from US12233161B1, “Lipids and lipid nanoparticle formulations” (LONGUIDE BIOPHARMA CORPORATION, priority 2024, dated 2025).

The subject of one data set is mice. Put plainly: In vivo delivery of FLuc-mRNA lipid nanoparticles in mice, in vivo imaging (IVIS). The procedure, abridged: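 Mice (n=3) received about 75 μL FLuc-mRNA LNP per mouse intramuscularly (rectus femoris), intravenously (tail vein), intraperitoneally or subcutaneously (back). After injection, D-luciferin (200 μL, 15 mg/mL) was given i.p. 10-15 min before IVIS imaging.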

The nature of data set [1]: Potential characterization of nucleic acid lipid nanoparticle preparations. It counts as physicochemical. The method, then: 20 μL of the nucleic acid lipid nanoparticle solution (containing about 0.04 mg/mL mRNA) was taken and added with 780 μL of ultrapure water, used a pipette tip to gently blow and mix, and the potential of the nanopreparation was detected by Malvern particle sizer (model ZEN3700).
27.5 μL nucleic acid lipid nanoparticle solution (containing about 0.04 mg/mL mRNA) was taken and added with 200 μL ultrapure water. A pipette tip was used to gently blow the sample and mix well. The particle size of the nanopreparation was detected by Malvern Dynamic Light Scattering Instrument (Malvern Instruments Ltd., ZEN3700, UK). After the detection, the sample was recovered to an EP tube, and 600 μL of ultrapure water was added, gently blown with a pipette tip, and the potential of the nanopreparation was measured by a Malvern particle size meter.

Data set [2] can be described thus: Particle size and PDI of nucleic acid lipid nanoparticle preparations by dynamic light scattering. It counts as physicochemical. The procedure, abridged: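 Nanoparticle suspension (about 0.04 mg/mL mRNA) diluted in ultrapure water, mixed by gentle pipetting; particle size measured by dynamic light scattering. Zeta potential measured on the recovered sample after further dilution in ultrapure water.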

Where [3] appears, read: DMG-PEG2000:DSPC:Chol:Lipid 0.50:4.00:47.00:48.50, N/P 36, IV, liver.
Setting [4] is: DMG-PEG2000:DSPC:Chol:Lipid 0.50:4.00:47.00:48.50, N/P 36, IV, lung.
Where [5] appears, read: DMG-PEG2000:DSPC:Chol:Lipid 0.50:4.00:47.00:48.50, N/P 36, IV, spleen.
Setting [6] is: DMG-PEG2000:DSPC:Chol:Lipid 1.00:4.00:25.00:70.00, N/P 36, IV, liver.
The mark [7] stands for this setting: DMG-PEG2000:DSPC:Chol:Lipid 1.00:4.00:25.00:70.00, N/P 36, IV, lung.
The mark [8] stands for this setting: DMG-PEG2000:DSPC:Chol:Lipid 1.00:4.00:25.00:70.00, N/P 36, IV, spleen.
Where [9] appears, read: DMG-PEG2000:DSPC:Chol:Lipid 1.00:16.00:48.00:35.00, N/P 18, IV, liver.
[10] abbreviates: DMG-PEG2000:DSPC:Chol:Lipid 1.00:16.00:48.00:35.00, N/P 18, IV, lung.
[11] abbreviates: DMG-PEG2000:DSPC:Chol:Lipid 1.00:16.00:48.00:35.00, N/P 18, IV, spleen.
The mark [12] stands for this setting: DMG-PEG2000:DSPC:Chol:compound 1.00:10.00:33.00:56.00, N/P 48.
Setting [13] is: DMG-PEG2000:DSPC:Chol:Lipid 0.50:4.00:47.00:48.50, N/P 36, mRNA LNP.
The mark [14] stands for this setting: DMG-PEG2000:DSPC:Chol:Lipid 1.00:4.00:25.00:70.00, N/P 36, mRNA LNP.
Where [15] appears, read: DMG-PEG2000:DSPC:Chol:Lipid 1.00:16.00:48.00:35.00, N/P 18, mRNA LNP.
Where [16] appears, read: DMG-PEG2000:DSPC:Chol:Lipid 1.40:11.15:38.95:48.50, N/P 18, mRNA LNP.
Setting [17] is: IM, DMG-PEG2000:DSPC:Chol:compound 1.40:11.15:38.95:48.50, N/P 30, Fluc-mRNA.
Where [18] appears, read: IV, body, DMG-PEG2000:DSPC:Chol:compound 1.40:11.15:38.95:48.50, N/P 30, Fluc-mRNA.
The mark [19] stands for this setting: IV, liver, DMG-PEG2000:DSPC:Chol:compound 1.40:11.15:38.95:48.50, N/P 30.
[20] abbreviates: IV, liver, DMG-PEG2000:DSPC:Chol:compound 1.40:11.15:38.95:48.50, N/P 30, Fluc-mRNA.
Setting [21] is: IV, lung, DMG-PEG2000:DSPC:Chol:compound 1.40:11.15:38.95:48.50, N/P 30.
Where [22] appears, read: IV, lung, DMG-PEG2000:DSPC:Chol:compound 1.40:11.15:38.95:48.50, N/P 30, Fluc-mRNA.
Setting [23] is: IV, spleen, DMG-PEG2000:DSPC:Chol:compound 1.40:11.15:38.95:48.50, N/P 30.
[24] abbreviates: IV, spleen, DMG-PEG2000:DSPC:Chol:compound 1.40:11.15:38.95:48.50, N/P 30, Fluc-mRNA.
The mark [25] stands for this setting: DMG-PEG2000:DSPC:Chol:compound 1.40:11.15:38.95:48.50, N/P 30.
Where [26] appears, read: IM, DMG-PEG2000:DSPC:Chol:compound 1.40:11.15:38.95:48.50, N/P 20, Fluc-mRNA.
Where [27] appears, read: IV, organ not given, DMG-PEG2000:DSPC:Chol:compound 1.40:11.15:38.95:48.50, N/P 20, Fluc-mRNA.
The mark [28] stands for this setting: DMG-PEG2000:DSPC:Chol:compound 1.40:11.15:38.95:48.50, N/P 20.
The mark [29] stands for this setting: DMG-PEG2000:DSPC:Chol:compound 1.00:10.00:33.00:56.00, N/P 42.

On to `CCCCCCCCCCCCNC(=O)C(O)CN(CCCN(CCCN(CC(O)C(=O)NCCCCCCCCCCCC)CC(O)C(=O)NCCCCCCCCCCCC)CC(O)CO)CC(O)C(=O)NCCCCCCCCCCCC` (centres unmarked) [Compound L0273], for which the IVIS in the data set with mice (DMG-PEG2000:DSPC:Chol:Lipid 0.50:4.00:47.00:48.50, N/P 36, IV, body) was 5.29 × 10^7; in the data set on mice (setting [3]), 2.55 × 10^6; in the data set on mice (setting [4]) it was 1.62 × 10^8; in the data set with mice (setting [5]) it was 5.07 × 10^6; with mice (DMG-PEG2000:DSPC:Chol:Lipid 1.00:4.00:25.00:70.00, N/P 36, IV, body), 1.65 × 10^8; with mice (setting [6]), 6.91 × 10^6. Besides, the IVIS in the data set on mice (setting [7]) is 4.82 × 10^8; with mice (setting [8]) it was 5.88 × 10^6; in the data set on mice (DMG-PEG2000:DSPC:Chol:Lipid 1.00:16.00:48.00:35.00, N/P 18, IV, body), 3.19 × 10^7; with mice (setting [9]), 3.44 × 10^6; in the data set with mice (setting [10]), 2.38 × 10^6; in the data set on mice (setting [11]), 1.81 × 10^7. The IVIS with mice (DMG-PEG2000:DSPC:Chol:Lipid 1.40:11.15:38.95:48.50, N/P 18, IM, whole body scan) is 2.54 × 10^6; in the data set on mice (IV, body, DMG-PEG2000:DSPC:Chol:compound 1.00:10.00:33.00:56.00, N/P 48, Fluc-mRNA), 4.36E+08; with mice (IV, liver, DMG-PEG2000:DSPC:Chol:compound 1.00:10.00:33.00:56.00, N/P 48, Fluc-mRNA) it was 5.72E+06; in the data set with mice (IV, lung, DMG-PEG2000:DSPC:Chol:compound 1.00:10.00:33.00:56.00, N/P 48, Fluc-mRNA), 7.69E+08; with mice (IV, spleen, DMG-PEG2000:DSPC:Chol:compound 1.00:10.00:33.00:56.00, N/P 48, Fluc-mRNA) it was 8.58E+06. Besides, the “% of organ targeting” value was found to be 1.50% in the data set on mice (setting [3]); 95.51% with mice (setting [4]); 2.99% in the data set on mice (setting [5]); 1.40% in the data set on mice (setting [6]); 97.42% in the data set on mice (setting [7]); 1.19% in the data set on mice (setting [8]). In addition, the “% of organ targeting” value was determined as 14.38% in the data set on mice (setting [9]); 9.95% in the data set with mice (setting [10]); 75.67% in the data set with mice (setting [11]); 0.73% with mice (IV, liver, DMG-PEG2000:DSPC:Chol:compound 1.00:10.00:33.00:56.00, N/P 48); 98.17% in the data set with mice (IV, lung, DMG-PEG2000:DSPC:Chol:compound 1.00:10.00:33.00:56.00, N/P 48); 1.09% in the data set with mice (IV, spleen, DMG-PEG2000:DSPC:Chol:compound 1.00:10.00:33.00:56.00, N/P 48). In addition, the “in vivo delivery efficiency as compared to the benchmark compound SM102” value in the data set with mice (certain formulations, Table 2) is “superior in vivo delivery efficiency”. In the data set with mice (certain formulations, Table 2), the “tissue-targeting specificity (lung vs spleen depending on molar percentage of compound)” value is “strong tissue-targeting specificity”. In addition, the “Zeta potential (mV)” value in data set [1] (setting [12]) was found to be 13.60 mV. The PDI in data set [2] (setting [13]) is listed as 0.11 ± 0.01; in data set [2] (setting [14]), 0.18 ± 0.01; in data set [2] (setting [15]), 0.15 ± 0.02; in data set [2] (setting [16]), 0.13 ± 0.02; in data set [2] (setting [12]) it was 0.13. The Particle size in data set [2] (setting [13]) stood at 113.50 ± 0.20 nm; in data set [2] (setting [14]) it was 167.67 ± 2.20 nm; in data set [2] (setting [15]), 119.23 ± 0.68 nm; in data set [2] (setting [16]), 91.45 ± 0.74 nm. For the same compound, the “Particle size (nm)” value in data set [2] (setting [12]) came to 125.97 nm.
Consider `CCCC/C=C\CCOCOCCCCOC(=O)C(O)CN(CCN(C)CCN(CC(O)C(=O)OCCCCOCOCC/C=C\CCCC)CC(O)C(=O)OCCCCOCOCC/C=C\CCCC)CC(O)C(=O)OCCCCOCOCC/C=C\CCCC` (centres unmarked) [Compound L0335], for which the IVIS in the data set with mice (setting [17]) was determined as 1.99E+06; with mice (setting [18]) it was 9.08E+07; with mice (setting [20]), 1.92E+07; in the data set with mice (setting [22]), 1.39E+06; in the data set on mice (setting [24]), 3.05E+07. The results for the “% of organ targeting” value with mice (setting [19]), with mice (setting [21]) and with mice (setting [23]) were 37.57%, 2.72% and 59.71%, respectively. Moreover, the “Zeta potential (mV)” value in data set [1] (setting [25]) stood at 14.07 mV. The compound further registered a PDI in data set [2] (setting [25]) of 0.19. Also, the “Particle size (nm)” value in data set [2] (setting [25]) is recorded as 110.13 nm.
The compound `CCCCCCCCCCOC(=O)C(O)CN(CCCCCN(CC(O)C(=O)OCCCCCCCCCC)CC(O)C(=O)OCCCCCCCCCC)CC(O)C(=O)OCCCCCCCCCC` (centres unmarked) [Compound L0318] had an IVIS in the data set on mice (setting [26]) of 5.83E+05. For the same compound, the IVIS with mice (setting [27]) was determined as 2.09E+05. Also, the “Zeta potential (mV)” value in data set [1] (setting [28]) amounted to 11.23 mV. In addition, in data set [2] (setting [28]), the PDI was 0.25 and the “Particle size (nm)” value is 571.13 nm.
The matching figures for `CCCCCCCCCCOC(=O)C(O)CN(CCOCCOCCN(CC(O)C(=O)OCCCCCCCCCC)CC(O)C(=O)OCCCCCCCCCC)CC(O)C(=O)OCCCCCCCCCC` (centres unmarked) [Compound L0324]: 4.15E+05, 7.27E+05, 5.44 mV, 0.47 and 445.20 nm.
Take `CCCCCCC(CCCCCC)C(=O)OCCCCCCOC(=O)C(O)CN(C)CCN(C)CCN(C)CC(O)C(=O)OCCCCCCOC(=O)C(CCCCCC)CCCCCC` (centres unmarked) [Compound L0291]: the IVIS with mice (setting [17]) is 1.87E+07; in the data set on mice (IV, body, DMG-PEG2000:DSPC:Chol:compound 1.00:10.00:33.00:56.00, N/P 42, Fluc-mRNA) it was 2.60E+07; in the data set on mice (setting [18]), 1.83E+07; with mice (IV, liver, DMG-PEG2000:DSPC:Chol:compound 1.00:10.00:33.00:56.00, N/P 42, Fluc-mRNA), 1.32E+06; in the data set with mice (setting [20]), 3.30E+06; in the data set with mice (IV, lung, DMG-PEG2000:DSPC:Chol:compound 1.00:10.00:33.00:56.00, N/P 42, Fluc-mRNA) it was 1.50E+06. In addition, the IVIS with mice (setting [22]) was 2.14E+05; in the data set on mice (IV, spleen, DMG-PEG2000:DSPC:Chol:compound 1.00:10.00:33.00:56.00, N/P 42, Fluc-mRNA), 2.32E+07; with mice (setting [24]), 1.89E+06. Further, the “% of organ targeting” value in the data set with mice (IV, liver, DMG-PEG2000:DSPC:Chol:compound 1.00:10.00:33.00:56.00, N/P 42) came to 5.08%; in the data set on mice (setting [19]), 61.07%; with mice (IV, lung, DMG-PEG2000:DSPC:Chol:compound 1.00:10.00:33.00:56.00, N/P 42), 5.76%; in the data set on mice (setting [21]) it was 3.97%; in the data set on mice (IV, spleen, DMG-PEG2000:DSPC:Chol:compound 1.00:10.00:33.00:56.00, N/P 42), 89.17%; with mice (setting [23]) it was 34.97%. For the same compound, the “Zeta potential (mV)” value in data set [1] (setting [25]) is recorded as 15.07 mV. In addition, the PDI in data set [2] (setting [29]) stood at 0.13; in data set [2] (setting [25]) it was 0.17. Besides, the “Particle size (nm)” value in data set [2] (setting [29]) came out at 221.70 nm; in data set [2] (setting [25]), 259.67 nm.
